What was measured:
[1] = system: Glomerella lacenarium (Colletotrichum lacenarium); assay: Fungicidal activity, liquid culture, cucumber preventative (anthracnose); type: cell-based; conditions: 20 ppm in the applied formulation, liquid culture in PDB, inhibition of growth measured photometrically 3 to 4 days after application, compared to untreated control, read-out: disease control
Outline: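 Cryostored conidia mixed into potato dextrose broth and added to DMSO compound solution in microtiter plates. Incubated at 24 °C. Growth inhibition read photometrically 3–4 days after application as percent activity versus untreated check.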

[2] = system: Puccinia recondita f. Sp. Tritici; assay: Fungicidal activity, wheat leaf disc preventative (brown rust); type: in vivo; conditions: foliar, 200 ppm in the applied formulation, wheat leaf segments cv. Kanzler, compared to untreated control, 7 to 9 days after application, read-out: disease control
Outline: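 Wheat cv. Kanzler leaf segments on agar were sprayed with formulated compound in water, then inoculated with spores 1 day later. Incubated at 19° C, 75% rh, 12 h light/12 h dark; percent disease control versus untreated scored 7 to 9 days after application.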

[3] = system: Puccinia recondita f. Sp. Tritici; assay: Fungicidal activity, wheat leaf disc curative (brown rust); type: in vivo; conditions: foliar, 200 ppm in the applied formulation, wheat leaf segments cv. Kanzler, curative (applied 1 day after inoculation), compared to untreated control, 6 to 8 days after application, read-out: disease control
Outline: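 Curative test: wheat leaf segments cv. Kanzler on agar inoculated with spore suspension, kept dark at 19 °C/75% RH, then sprayed 1 day post-inoculation with compound diluted in water. Incubated at 19 °C, 75% RH, 12 h light/dark; percent disease control versus untreated scored 6–8 days after application.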

CC(C)C(=O)N(Cc1ccc(-c2noc(C(F)(F)F)n2)s1)C1CC1 [Compound 4.3, N-cyclopropyl-2-methyl-N-[[5-[5-(trifluoromethyl)-1,2,4-oxadiazol-3-yl]-2-thienyl]methyl]propanamide]
≥ 80%: inhibition of growth at 20 ppm [1] | pest or weed control at 200 ppm [2] | pest or weed control at 200 ppm [3]

O=C(N1CCCO1)N(Cc1ccc(-c2noc(C(F)(F)F)n2)s1)OCC(F)F [Compound 5.64, N-(2,2-difluoroethoxy)-N-[[5-[5-(trifluoromethyl)-1,2,4-oxadiazol-3-yl]-2-thienyl]methyl]isoxazolidine-2-carboxamide]
≥ 80%: inhibition of growth at 20 ppm [1] | pest or weed control at 200 ppm [2] | pest or weed control at 200 ppm [3]

CCN(CC)C(=O)N(Cc1ccc(-c2noc(C(F)(F)F)n2)s1)C1CC1 [Compound 4.90, 1-cyclopropyl-3,3-diethyl-1-[[5-[5-(trifluoromethyl)-1,2,4-oxadiazol-3-yl]-2-thienyl]methyl]urea]
≥ 80%: inhibition of growth at 20 ppm [1] | pest or weed control at 200 ppm [2] | pest or weed control at 200 ppm [3]

O=C(C1CCCO1)N(Cc1ccc(-c2noc(C(F)(F)F)n2)s1)C1CC1 (stereo not drawn) [Compound 5.40, N-cyclopropyl-N-[[5-[5-(trifluoromethyl)-1,2,4-oxadiazol-3-yl]-2-thienyl]methyl]tetrahydrofuran-2-carboxamide]
≥ 80%: inhibition of growth at 20 ppm [1] | pest or weed control at 200 ppm [2] | pest or weed control at 200 ppm [3]

CNC(=O)N(OC)C(C)c1ccc(-c2noc(C(F)(F)F)n2)s1 (stereo not drawn) [Compound 1.50, 1-methoxy-3-methyl-1-[1-[5-[5-(trifluoromethyl)-1,2,4-oxadiazol-3-yl]-2-thienyl]ethyl]urea]
≥ 80%: inhibition of growth at 20 ppm [1] | pest or weed control at 200 ppm [2] | pest or weed control at 200 ppm [3]

CCC(=O)C(=O)N(CC)Cc1ccc(-c2noc(C(F)(F)F)n2)s1 [Compound 6.42, N-ethyl-2-oxo-N-[[5-[5-(trifluoromethyl)-1,2,4-oxadiazol-3-yl]-2-thienyl]methyl]butanamide]
≥ 80%: inhibition of growth at 20 ppm [1] | pest or weed control at 200 ppm [2] | pest or weed control at 200 ppm [3]

CC(=O)N(C)Cc1ccc(-c2noc(C(F)(F)F)n2)s1 [Compound 4.41, N-methyl-N-[[5-[5-(trifluoromethyl)-1,2,4-oxadiazol-3-yl]-2-thienyl]methyl]acetamide]
≥ 80%: inhibition of growth at 20 ppm [1] | pest or weed control at 200 ppm [2] | pest or weed control at 200 ppm [3]

CCCN(CC1CC1)C(=O)N(CC)Cc1ccc(-c2noc(C(F)(F)F)n2)s1 [Compound 5.53, 1-(cyclopropylmethyl)-3-ethyl-1-propyl-3-[[5-[5-(trifluoromethyl)-1,2,4-oxadiazol-3-yl]-2-thienyl]methyl]urea]
≥ 80%: inhibition of growth at 20 ppm [1] | pest or weed control at 200 ppm [2] | pest or weed control at 200 ppm [3]

CCC(=O)N(C)Cc1ccc(-c2noc(C(F)(F)F)n2)s1 [Compound 4.36, N-methyl-N-[[5-[5-(trifluoromethyl)-1,2,4-oxadiazol-3-yl]-2-thienyl]methyl]propanamide]
≥ 80%: inhibition of growth at 20 ppm [1] | pest or weed control at 200 ppm [2] | pest or weed control at 200 ppm [3]

COCCN(CCOC)C(=O)N(C)Cc1ccc(-c2noc(C(F)(F)F)n2)s1 [Compound 4.80, 1,1-bis(2-methoxyethyl)-3-methyl-3-[[5-[5-(trifluoromethyl)-1,2,4-oxadiazol-3-yl]-2-thienyl]methyl]urea]
≥ 80%: inhibition of growth at 20 ppm [1] | pest or weed control at 200 ppm [2] | pest or weed control at 200 ppm [3]

CC(=O)NCC(=O)N(Cc1ccc(-c2noc(C(F)(F)F)n2)s1)C1CC1 [Compound 4.53, 2-acetamido-N-cyclopropyl-N-[[5-[5-(trifluoromethyl)-1,2,4-oxadiazol-3-yl]-2-thienyl]methyl]acetamide]
≥ 80%: inhibition of growth at 20 ppm [1] | pest or weed control at 200 ppm [2] | pest or weed control at 200 ppm [3]

O=C(N1CCCO1)N(Cc1ccc(-c2noc(C(F)(F)F)n2)s1)C1CC1 [Compound 5.61, N-cyclopropyl-N-[[5-[5-(trifluoromethyl)-1,2,4-oxadiazol-3-yl]-2-thienyl]methyl]isoxazolidine-2-carboxamide]
≥ 80%: inhibition of growth at 20 ppm [1] | pest or weed control at 200 ppm [2] | pest or weed control at 200 ppm [3]

O=C(C1CC1)N(Cc1ccc(-c2noc(C(F)(F)F)n2)s1)OCC(F)F [Compound 5.7, N-(2,2-difluoroethoxy)-N-[[5-[5-(trifluoromethyl)-1,2,4-oxadiazol-3-yl]-2-thienyl]methyl]cyclopropanecarboxamide]
≥ 80%: inhibition of growth at 20 ppm [1] | pest or weed control at 200 ppm [2] | pest or weed control at 200 ppm [3]

CCN(CC)C(=O)N(CC)Cc1ccc(-c2noc(C(F)(F)F)n2)s1 [Compound 4.73, 1,1,3-triethyl-3-[[5-[5-(trifluoromethyl)-1,2,4-oxadiazol-3-yl]-2-thienyl]methyl]urea]
≥ 80%: inhibition of growth at 20 ppm [1] | pest or weed control at 200 ppm [2] | pest or weed control at 200 ppm [3]

CCOC(=O)N(Cc1ccc(-c2noc(C(F)(F)F)n2)s1)C1CC1 [Compound 4.4, ethyl N-cyclopropyl-N-[[5-[5-(trifluoromethyl)-1,2,4-oxadiazol-3-yl]-2-thienyl]methyl]carbamate]
≥ 80%: inhibition of growth at 20 ppm [1] | pest or weed control at 200 ppm [2] | pest or weed control at 200 ppm [3]

CC1(C(=O)N(Cc2ccc(-c3noc(C(F)(F)F)n3)s2)C2CC2)CC1 [Compound 5.39, N-cyclopropyl-1-methyl-N-[[5-[5-(trifluoromethyl)-1,2,4-oxadiazol-3-yl]-2-thienyl]methyl]cyclopropanecarboxamide]
≥ 80%: inhibition of growth at 20 ppm [1] | pest or weed control at 200 ppm [2] | pest or weed control at 200 ppm [3]

COCC(=O)N(Cc1ccc(-c2noc(C(F)(F)F)n2)s1)C(C)C [Compound 4.42, N-isopropyl-2-methoxy-N-[[5-[5-(trifluoromethyl)-1,2,4-oxadiazol-3-yl]-2-thienyl]methyl]acetamide]
≥ 80%: inhibition of growth at 20 ppm [1] | pest or weed control at 200 ppm [2] | pest or weed control at 200 ppm [3]

CN(Cc1ccc(-c2noc(C(F)(F)F)n2)s1)C(=O)C(=O)C(C)(C)C [Compound 6.48, N,3,3-trimethyl-2-oxo-N-[[5-[5-(trifluoromethyl)-1,2,4-oxadiazol-3-yl]-2-thienyl]methyl]butanamide]
≥ 80%: inhibition of growth at 20 ppm [1] | pest or weed control at 200 ppm [2] | pest or weed control at 200 ppm [3]

CCCC(=O)N(Cc1ccc(-c2noc(C(F)(F)F)n2)s1)OCC(F)F [Compound 4.63, N-(2,2-difluoroethoxy)-N-[[5-[5-(trifluoromethyl)-1,2,4-oxadiazol-3-yl]-2-thienyl]methyl]butanamide]
≥ 80%: inhibition of growth at 20 ppm [1] | pest or weed control at 200 ppm [2] | pest or weed control at 200 ppm [3]

CC(C)N(Cc1ccc(-c2noc(C(F)(F)F)n2)s1)C(=O)CC#N [Compound 4.49, 2-cyano-N-isopropyl-N-[[5-[5-(trifluoromethyl)-1,2,4-oxadiazol-3-yl]-2-thienyl]methyl]acetamide]
≥ 80%: inhibition of growth at 20 ppm [1] | pest or weed control at 200 ppm [2] | pest or weed control at 200 ppm [3]

CN(Cc1ccc(-c2noc(C(F)(F)F)n2)s1)C(=O)CC#N [Compound 4.39, 2-cyano-N-methyl-N-[[5[5-(trifluoromethyl)-1,2,4-oxadiazol-3-yl]-2-thienyl]methyl]acetamide]
≥ 80%: inhibition of growth at 20 ppm [1] | pest or weed control at 200 ppm [2] | pest or weed control at 200 ppm [3]

— patent US20200187502A1, “MICROBIOCIDAL OXADIAZOLE DERIVATIVES” (SYNGENTA PARTICIPATIONS AG, priority 2017, published 2020)
